The text below walks through data of ChEMBL document CHEMBL1144567, “Linker-modified triamine-linked acridine dimers: synthesis and cytotoxicity properties in vitro and in vivo” (Bioorg Med Chem, 2007).

Data set [1] in a line: Toxicity in ICR mouse. The format is organism-based. Particulars: in vivo.
Data set [2] deals with COLO 205. In words: Cytotoxicity against human COLO205 cells after 72 hrs by MTT assay. The format is cell-based. Particulars: COLO 205, 72 h. (In general: Formazan colour is commonly taken as a measure of viable cells.)
Data set [3] can be described thus: Cytotoxicity against human HA22T cells after 72 hrs by MTT assay. Type of data set: cell-based.
The nature of data set [4]: Cytotoxicity against SKBR3 cells after 72 hrs by MTT assay. The format is cell-based. Particulars: Homo sapiens, SK-BR-3, 72 h.
The test system of another data set is MOLT-4. In words: Cytotoxicity against MOLT4 cells after 72 hrs by MTT assay. Particulars: Homo sapiens, MOLT-4, 72 h.
In data set [5] the test system is COLO 205. In words: Antitumor activity against human COLO205 cells implanted in SCID mouse at 22.5 mg/kg injected into tail vein. The format is functional. The note with it: read-out: TGI.
Data set [6] relates to COLO 205. In words: Antitumor activity against human COLO205 cells implanted in SCID mouse at 10 mg/kg injected into tail vein. Type of data set: functional. Particulars: read-out: TGI.
Another data set relates to Nucleic Acid. In words: Binding affinity to Escherichia coli JM83 pUC19 DNA assessed as DNA intercalation assay. Type of data set: nucleic-acid assay.

The structures appear in SMILES notation.

Regarding `COc1ccc2nc3cc(Cl)ccc3c(NCCCN(C)CCCNc3c4ccc(Cl)cc4nc4ccc(OC)cc34)c2c1`, the MTD in data set [1] came to 22.5 mg/kg. Also, the IC50 (commonly the concentration needed to halve the response being measured) with COLO 205 [2] was 160 nM; in data set [3] it was 620 nM; in data set [4] it was 700 nM; with MOLT-4, < 20 nM. The inhibition in vivo at 22.5 mg/kg in the data set with COLO 205 [5] is 2%.

Consider `COc1ccc2nc3cc(Cl)ccc3c(NCCCN(CCCNc3c4ccc(Cl)cc4nc4ccc(OC)cc34)Cc3ccccn3)c2c1`, for which the inhibition in vivo at 10 mg/kg in the data set with COLO 205 [6] is 0%. The MTD in data set [1] came out at 10 mg/kg. The IC50 was 10 nM in the data set with COLO 205 [2], 3970 nM in data set [3], 720 nM in data set [4] and < 10 nM with MOLT-4. In addition, the SC50 with Nucleic Acid is 2 µM.
